Laboratory results taken from patent US20240384268A1, “Oligonucleotides” (Hudson Institute of Medical Research, priority 2021, published 2024).
In the oligonucleotide strings, read from the 5' end, every base follows the letter of its sugar. An asterisk marks phosphorothioate; unmarked linkages are phosphodiester. Other units and linkages are bracketed, terminal groups are in braces. A string of capitals states the bases alone. d = 2'-deoxy (DNA); m = 2'-O-methyl

molecular target: T1, human TLR9 (Homo sapiens, UniProt Q9NR96); test: HEK-TLR9 NF-κB-luciferase reporter, ODN2006 stimulation; format: cell-based; conditions: HEK-TLR9; 500 nM ASO 45 min, then 200 nM ODN2006 overnight; percentage of ODN2006 only
T1 construct: HA; host or cells: 293XL-hTLR9-HA (HEK293)
T1 sequence (Q9NR96 26-1032): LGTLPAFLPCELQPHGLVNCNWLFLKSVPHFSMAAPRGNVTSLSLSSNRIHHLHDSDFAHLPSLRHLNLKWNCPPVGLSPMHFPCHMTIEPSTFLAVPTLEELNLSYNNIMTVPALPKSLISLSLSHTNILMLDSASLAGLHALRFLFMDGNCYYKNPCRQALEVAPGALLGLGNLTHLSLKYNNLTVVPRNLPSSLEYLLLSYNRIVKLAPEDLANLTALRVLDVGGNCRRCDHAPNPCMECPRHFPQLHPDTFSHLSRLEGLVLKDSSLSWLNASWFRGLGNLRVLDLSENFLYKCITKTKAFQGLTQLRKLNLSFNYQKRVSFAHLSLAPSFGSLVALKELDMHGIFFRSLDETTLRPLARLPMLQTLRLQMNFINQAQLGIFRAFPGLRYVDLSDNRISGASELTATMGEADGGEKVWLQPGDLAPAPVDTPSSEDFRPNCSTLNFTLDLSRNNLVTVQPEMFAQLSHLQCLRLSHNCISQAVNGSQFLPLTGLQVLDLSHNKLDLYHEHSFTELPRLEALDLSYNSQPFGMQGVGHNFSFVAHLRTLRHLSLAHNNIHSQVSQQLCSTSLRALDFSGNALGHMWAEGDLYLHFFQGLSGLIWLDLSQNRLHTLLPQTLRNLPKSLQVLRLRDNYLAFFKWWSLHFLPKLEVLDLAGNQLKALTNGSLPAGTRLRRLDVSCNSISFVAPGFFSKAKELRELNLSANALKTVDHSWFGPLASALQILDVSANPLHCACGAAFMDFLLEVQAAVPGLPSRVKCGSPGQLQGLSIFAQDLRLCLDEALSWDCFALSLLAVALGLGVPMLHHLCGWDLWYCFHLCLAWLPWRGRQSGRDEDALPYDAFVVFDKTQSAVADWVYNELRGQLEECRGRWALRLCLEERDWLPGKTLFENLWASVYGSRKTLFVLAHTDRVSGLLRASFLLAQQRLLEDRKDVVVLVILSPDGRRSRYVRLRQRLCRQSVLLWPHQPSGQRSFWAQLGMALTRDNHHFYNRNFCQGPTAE

In order of rising “TLR9-500 nM: averaged NF-κB-Luciferase relative to ODN2006” value:
1. mU*mU*mG*mG*mC*C*T*G*T*G*G*A*T*G*C*mU*mU*mU*mG*mU (mU*mU*mG*mG*mC*dC*dT*dG*dT*dG*dG*dA*dT*dG*dC*mU*mU*mU*mG*mU) [[LINC-PINT]2673.1]  40.71%
2. mU*mG*mA*mC*mA*A*A*A*C*A*A*T*A*A*T*mA*mA*mC*mA*mG (mU*mG*mA*mC*mA*dA*dA*dA*dC*dA*dA*dT*dA*dA*dT*mA*mA*mC*mA*mG) [[LINC-PINT]384]  53.61%
3. mU*mU*mU*mG*mA*A*A*T*T*C*A*G*A*A*G*mA*mU*mU*mU*mG (mU*mU*mU*mG*mA*dA*dA*dT*dT*dC*dA*dG*dA*dA*dG*mA*mU*mU*mU*mG) [[LINC PINT|2690]  54.33%
4. mU*mC*mU*mG*mG*T*C*C*C*A*T*C*C*C*T*mU*mC*mU*mG*mC (UCUGGTCCCATCCCTUCUGC; antisense; sugars from the 5' end m5 d10 m5, all phosphorothioate, methylation of C not given here) [[LINC-PINT]106]  56.60%
5. mU*mU*mG*mU*mG*A*A*A*A*G*A*T*T*A*T*mC*mU*mU*mC*mU (mU*mU*mG*mU*mG*dA*dA*dA*dA*dG*dA*dT*dT*dA*dT*mC*mU*mU*mC*mU) [[CDKN2B-AS1]2138]  61.15%
6. mU*mG*mU*mG*mA*A*A*A*G*A*T*T*A*T*C*mU*mU*mC*mU*mU (UGUGAAAAGATTATCUUCUU; sugars from the 5' end m5 d10 m5, all phosphorothioate, methylation of C not given here) [[CDKN2B-AS1]2137]  62.16%
7. mU*mG*mA*mU*mG*A*T*G*C*T*T*G*C*A*G*mG*mA*mG*mG*mC (mU*mG*mA*mU*mG*dA*dT*dG*dC*dT*dT*dG*dC*dA*dG*mG*mA*mG*mG*mC) [[LINC-PINT|283.1]  65.76%
8. mU*mG*mU*mU*mU*C*C*C*C*G*G*A*G*A*G*mC*mA*mA*mU*mG (UGUUUCCCCGGAGAGCAAUG; antisense; sugars from the 5' end m5 d10 m5, all phosphorothioate, methylation of C not given here) [[LINC-PINT]501 KL]  71.47%
9. mU*mC*mU*mC*mU*C*T*G*G*T*C*C*C*A*T*mC*mC*mC*mU*mU (mU*mC*mU*mC*mU*dC*dT*dG*dG*dT*dC*dC*dC*dA*dT*mC*mC*mC*mU*mU; antisense) [[LINC-PINT]110]  74.25%
10. mU*mU*mA*mG*mC*T*C*C*T*T*G*C*C*T*C*mG*mU*mU*mC*mC (mU*mU*mA*mG*mC*dT*dC*dC*dT*dT*dG*dC*dC*dT*dC*mG*mU*mU*mC*mC; antisense) [[LINC-PINT] 1222]  78.17%
11. mU*mG*mG*mC*mG*T*A*G*T*T*T*C*T*C*T*mU*mC*mC*mU*mC (mU*mG*mG*mC*mG*dT*dA*dG*dT*dT*dT*dC*dT*dC*dT*mU*mC*mC*mU*mC; antisense) [[LINC-PINT]937.1]  79.89%
12. mU*mU*mC*mU*mC*T*C*T*G*G*T*C*C*C*A*mU*mC*mC*mC*mU (mU*mU*mC*mU*mC*dT*dC*dT*dG*dG*dT*dC*dC*dC*dA*mU*mC*mC*mC*mU; antisense) [[LINC-PINT]111]  98.01%
13. mU*mU*mA*mA*mA*T*A*A*T*C*T*A*G*T*T*mU*mG*mA*mA*mG (UUAAATAATCTAGTTUGAAG; sugars from the 5' end m5 d10 m5, all phosphorothioate, methylation of C not given here) [[CDKN2B-AS1]132]  98.18%
14. mU*mC*mU*mC*mU*G*G*T*C*C*C*A*T*C*C*mC*mU*mU*mC*mU (UCUCUGGTCCCATCCCUUCU; antisense; sugars from the 5' end m5 d10 m5, all phosphorothioate, methylation of C not given here) [[LINC-PINT]108]  100.51%
15. mU*mG*mA*mC*mA*T*T*T*C*G*T*G*G*C*T*mC*mC*mU*mA*mC (mU*mG*mA*mC*mA*dT*dT*dT*dC*dG*dT*dG*dG*dC*dT*mC*mC*mU*mA*mC; antisense) [[LINC-PINT]523 KL]  118.29%
